Measured values from patent publication US12115152B2, “Pan-RAF kinase inhibitor and use thereof” (HEFEI INSTITUTES OF PHYSICAL SCIENCE, CHINESE ACADEMY OF …, priority 2019, dated 2024).

Key:
[1] = system: Calu-6, A375, BxPC3, HCT116, COLO205 cell transplanted tumors; assay: Drug efficacy in mouse transplanted tumor models; format: in vivo; conditions: mouse transplanted tumor models of cancer cells expressing KRAS, BRAF or NRAS mutations, oral daily dosing
[2] = system: human acute leukemia cell NB4 (expressing KRAS-A18D mutant kinase); assay: Effect on proliferation of cancer cells, Cell Titer-Glo, 72 hours; format: cell-based; conditions: NB-4
Procedure: (§1) The compounds of the present invention were tested for their effect on growth of cancer cells (Table 2), to further evaluate the compounds herein for their inhibitory effect on proliferation of cancer cells and their selectivity in inhibiting proliferation of cancer cells.
(§2) The above-mentioned BaF3-FL-BRAF-V600E mutant cell line was constructed by the method as follows. The sequence of human full-length BRAF-V600E mutant kinase region was amplified by PCR, inserted into a MSCV-Puro vector (purchased from Clontech), and stably transfected into mouse BaF3 cells by the retroviral method, and the growth factor IL-3 was removed. Eventually, a cell line dependent on a full-length BRAF-V600E protein having various mutation transferred was obtained.
(§3) In the example, solutions of the test compound in DMSO at different concentrations (0.000508 μM, 0.00152 μM, 0.00457 μM, 0.0137 μM, 0.0411 μM, 0.123 μM, 0.370 μM, 1.11 μM, 3.33 μM, 10 μM) was added to the above cells respectively. The cells were incubated for 72 hours. The number of viable cells was detected with a Cell Titer-Glo (Promega, USA) Cell Viability Assay Kit by quantifying the ATP in viable cells. The values of GI50 (unit) of the compounds of the present invention against each of the test cells were determined.

[3] = system: human acute leukemia cell OCI-AML-3 (expressing NRAS-Q61L mutant kinase); assay: as above; format: cell-based; conditions: OCI-AML-3 cells
Procedure: as §1, §2, §3

[4] = system: mouse BaF3-FL-BRAF-V600E (stably expressing full-length BRAF-V600E mutant kinase); assay: as above; format: cell-based
[5] = system: colorectal cancer cell COLO205 (expressing BRAF-V600E mutant kinase); assay: as above; format: cell-based; conditions: Homo sapiens, COLO 205
[6] = system: melanoma cell A375 (expressing BRAF-V600E mutant kinase); assay: as above; format: cell-based; conditions: Homo sapiens, A-375

| Compound | tumor inhibitory effect [1] | GI50 [2] [nM] | GI50 [3] [nM] | GI50 [4] [nM] | GI50 [5] [nM] | GI50 [6] [nM] |
| --- | --- | --- | --- | --- | --- | --- |
| Cc1ccc(NC(=O)c2cccc(C(F)(F)F)c2)cc1-n1cc(-c2cncc(N3CCOCC3)c2)cn1 [Example 16, N-(4-methyl-3-(4-(5-morpholinopyrid-3-yl)-1H-pyrazol-1-yl)phenyl)-3-(trifluoromethyl)benzamide] | inhibitory effect superior to the control compounds | 27 | 21 |  |  |  |
| Cc1ccc(NC(=O)c2cccc(C(F)(F)F)c2)cc1-n1cc(-c2cccnc2)cn1 [compound 1, 3-trifluoromethyl-N-(4-methyl-3-(4-(pyrid-3-yl)-1H-pyrazol-1-yl)phenyl)benzamide, reference compound] |  | 83 | 20 | 17 | 150 | 85 |
